The text below walks through data of patent US20250237650A1 (priority 2021, published 2025).

pKd: −log10 of the molar value.

The target of assay [1] is SARS-CoV-2 spike. It is filed as binding. Conditions: for pKd: pH 7.4.
The test system of assay [2] is SARS-CoV-2 spike.
In assay [3] the target is Env (monomeric gp140; Clade CRF07_BC). Put plainly: BLI of HS/HEP to monomeric Env. On the set-up: species or system HIV-1. As to conditions: steady-state analysis of BLI data; read-out: Estimated binding affinity (KD).
Assay [4] addresses trimeric Env (Group M; Clade C). Put plainly: BLI of HS to trimeric Env. On the set-up: species or system HIV-1. As to conditions: read-out: estimated binding affinity.
The test system of assay [5] is variants of Env (trimeric gp140; Clade C, B, A). Put plainly: BLI of HS to variants of trimeric Env. It is filed as binding, HIV-1.

In the case of chondroitin sulfate [CS25], in assay [1], the pKd is 7.75.

In the case of heparan sulfate [HS15], in assay [2], the “LFSA signal intensity of capture probes” value is listed as “highest signal intensity”.

For the substance heparan sulfate [HS], the pKd in assay [3] was 6.85; in assay [4], 7.55. In addition, the “Binding affinity of HS to all the subtypes” value in assay [5] is listed as “in the nanomolar range”.

As for heparin [HEP15, reference compound], the pKd in assay [1] is 6.67.

Turning to heparin [HEP27, reference compound], the “LFSA signal intensity of capture probes” value in assay [2] is listed as “lower signal intensity”.

With heparin [reference compound], the “HEP binding affinity to spike as ionic strength increased” value in assay [1] is reported as “dramatically decreased”. Further, the pKd in assay [3] was 6.68.
